According to PubChem BioAssay (NCI):
Several values for one entry are separate records, joined by “and”; a condition that tells them apart may be missing. Identical values can stand only once.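 Exposure lasted 48 hours, with cells grown in 96-well plates and compounds tested at five concentrations. TGI: total growth inhibition.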

Key:
Assay in all cases: inhibition of tumour cell growth, NCI panel, 48 h
[1] = test system: CCRF-CEM leukemia
[2] = test system: COLO 205 colon
[3] = test system: EKVX NSCLC
[4] = test system: HCC-2998 colon
[5] = test system: HOP-92 NSCLC
[6] = test system: HS 578T breast
[7] = test system: KM12 colon
[8] = test system: MALME-3M melanoma
[9] = test system: MDA-MB-231 breast
[10] = test system: MDA-MB-435
[11] = test system: MDA-N
[12] = test system: MOLT-4 leukemia
[13] = test system: NCI-H23 lung
[14] = test system: OVCAR-4 ovarian
[15] = test system: SF-295 CNS
[16] = test system: SF-539 CNS
[17] = test system: SK-MEL-5 melanoma
[18] = test system: SNB-19 CNS
[19] = test system: U251 CNS
[20] = test system: DMS 273 small cell lung

COc1cccc(C2c3cc4c(cc3OC(C)(N3CCCC3)C2C)OCO4)c1 (stereo not drawn)
TGI [1]: > 100 µM
TGI [2]: 23.6 µM
TGI [3]: 92.1 µM
TGI [4]: 32.8 µM
TGI [5]: 42.2 µM
TGI [6]: 19.9 µM
TGI [7]: 17.8 µM
TGI [8]: 64.7 µM
TGI [9]: 27.4 µM
TGI [10]: 32.9 µM
TGI [11]: 4.02 µM
TGI [12]: > 100 µM
TGI [13]: 71.1 µM
TGI [14]: 75 µM
TGI [15]: 73.9 µM
TGI [16]: 37.2 µM
TGI [17]: 14.5 µM
TGI [18]: > 100 µM
TGI [19]: 35.8 µM

CCOC(=O)c1nc2cc(F)c(N3CCOCC3)cc2[nH]c1=O
TGI [1]: > 100 µM
TGI [2]: > 100 µM
TGI [3]: > 100 µM
TGI [4]: > 100 µM
TGI [5]: > 100 µM
TGI [6]: > 100 µM
TGI [7]: > 100 µM
TGI [8]: > 100 µM
TGI [9]: > 100 µM
TGI [10]: > 100 µM
TGI [11]: > 100 µM
TGI [12]: > 100 µM
TGI [13]: > 100 µM
TGI [14]: > 100 µM
TGI [15]: > 100 µM
TGI [16]: > 100 µM
TGI [17]: > 100 µM
TGI [18]: > 100 µM
TGI [19]: > 100 µM

NCC(=O)Nc1ccc(S(=O)(=O)O)c2cc(S(=O)(=O)O)cc(S(=O)(=O)O)c12
TGI [1]: > 100 µM
TGI [2]: > 100 µM
TGI [3]: > 100 µM
TGI [4]: > 100 µM
TGI [5]: > 100 µM
TGI [6]: > 100 µM
TGI [7]: > 100 µM
TGI [8]: > 100 µM
TGI [9]: > 100 µM
TGI [10]: > 100 µM
TGI [11]: > 100 µM
TGI [12]: > 100 µM
TGI [13]: > 100 µM
TGI [14]: > 100 µM
TGI [15]: > 100 µM
TGI [16]: > 100 µM
TGI [17]: > 100 µM
TGI [18]: > 100 µM
TGI [19]: > 100 µM

COCOC1C=CCCCC2=CC(C)=C(CC1)O2 (stereo not drawn)
TGI [1]: > 100 µM
TGI [2]: > 100 µM
TGI [3]: > 100 µM
TGI [4]: > 100 µM
TGI [5]: > 100 µM
TGI [6]: > 100 µM
TGI [7]: > 100 µM
TGI [8]: > 100 µM
TGI [9]: > 100 µM
TGI [10]: > 100 µM
TGI [11]: > 100 µM
TGI [12]: > 100 µM
TGI [13]: > 100 µM
TGI [14]: > 100 µM
TGI [15]: > 100 µM
TGI [16]: > 100 µM
TGI [17]: > 100 µM
TGI [18]: > 100 µM
TGI [19]: > 100 µM

CC1C=CN(N(C)C)C2=C1C(=O)c1cnccc1C2=O (stereo not drawn)
TGI [1]: 5.01 µM
TGI [2]: 2.45 µM
TGI [3]: 2.07 µM
TGI [4]: 1.8 µM
TGI [5]: 3.87 µM
TGI [6]: 3.82 µM
TGI [7]: 2.8 µM
TGI [8]: 1.49 µM
TGI [9]: 2.12 µM
TGI [10]: 0.43 µM
TGI [11]: 0.278 µM
TGI [12]: 4.06 µM
TGI [13]: 0.823 µM
TGI [14]: 2.03 µM
TGI [15]: 2.18 µM
TGI [16]: 1.26 µM
TGI [17]: 0.894 µM
TGI [18]: 2.31 µM
TGI [19]: 2.49 µM

O=C1NC(N/N=C\C(O)C(O)C(O)C(O)CO)=N/C1=C/c1ccc(Cl)cc1 (stereo not drawn)
TGI [1]: > 100 µM
TGI [2]: > 100 µM
TGI [3]: > 100 µM
TGI [4]: > 100 µM
TGI [5]: > 100 µM
TGI [6]: > 100 µM
TGI [7]: > 100 µM
TGI [8]: > 100 µM
TGI [9]: > 100 µM
TGI [10]: > 100 µM
TGI [11]: > 100 µM
TGI [12]: > 100 µM
TGI [13]: > 100 µM
TGI [14]: > 100 µM and 50.7 µM
TGI [15]: > 100 µM
TGI [16]: > 100 µM
TGI [17]: > 100 µM
TGI [18]: > 100 µM
TGI [19]: > 100 µM

CN(C)CCNC(=O)c1cccc2c(Nc3ccc(S(=O)(=O)N=C(N)N)cc3)c3ccccc3nc12
TGI [1]: 30.2 µM
TGI [2]: 32.2 µM
TGI [20]: 24.2 µM
TGI [3]: 55.3 µM
TGI [7]: > 100 µM
TGI [12]: 6.83 µM
TGI [13]: > 100 µM
TGI [14]: 30 µM
TGI [15]: 75.2 µM
TGI [16]: 36.7 µM
TGI [17]: 27.9 µM
TGI [18]: 17.9 µM
TGI [19]: 67 µM

CCCC(=O)N1CCN(c2ccc3c(c2)OC(C)O3)CC1 (stereo not drawn)
TGI [1]: > 100 µM
TGI [2]: > 100 µM
TGI [3]: > 100 µM
TGI [4]: > 100 µM
TGI [5]: > 100 µM
TGI [6]: > 100 µM
TGI [7]: > 100 µM
TGI [8]: > 100 µM
TGI [9]: > 100 µM
TGI [10]: > 100 µM
TGI [11]: > 100 µM
TGI [12]: > 100 µM
TGI [13]: > 100 µM
TGI [14]: > 100 µM
TGI [15]: > 100 µM
TGI [16]: > 100 µM
TGI [17]: > 100 µM
TGI [18]: > 100 µM
TGI [19]: > 100 µM

CC(=O)OCC1OC(OC2CC3C(C)(C)C(O)CC[C@]3(C)C3CCC45CC4(CCC5[C@@H](C)CC(O)C(O)C(C)(C)O)[C@]23C)C(O)C(O)C1O (stereo partly drawn)
TGI [1]: > 10 µM
TGI [2]: > 10 µM
TGI [3]: > 10 µM
TGI [4]: > 10 µM
TGI [5]: > 10 µM
TGI [6]: > 10 µM
TGI [7]: > 10 µM
TGI [8]: > 10 µM
TGI [9]: > 10 µM
TGI [10]: > 10 µM
TGI [11]: > 10 µM
TGI [12]: > 10 µM
TGI [13]: > 10 µM
TGI [14]: > 10 µM
TGI [15]: > 10 µM
TGI [16]: > 10 µM
TGI [17]: > 10 µM
TGI [18]: > 10 µM
TGI [19]: > 10 µM

CN(C)/N=C1/CCC(C(F)(F)F)(C(F)(F)F)O1
TGI [1]: 90.3 µM
TGI [2]: 31.2 µM
TGI [3]: > 100 µM
TGI [4]: > 100 µM
TGI [5]: 70.1 µM
TGI [6]: 88.4 µM
TGI [7]: 48.8 µM
TGI [8]: 61.1 µM
TGI [9]: 57.4 µM
TGI [10]: 76 µM
TGI [11]: > 100 µM
TGI [12]: > 100 µM
TGI [13]: 98.4 µM
TGI [14]: > 100 µM
TGI [15]: > 100 µM
TGI [16]: > 100 µM
TGI [17]: 52.6 µM
TGI [18]: > 100 µM
TGI [19]: > 100 µM

COc1cccc2nc3c(C(=O)NCCN(C)C)cccc3cc12
TGI [1]: 61.3 µM
TGI [2]: 2.55 µM
TGI [3]: 9.64 µM
TGI [4]: 12.3 µM
TGI [5]: 11.2 µM
TGI [6]: 7.5 µM
TGI [7]: 13.6 µM
TGI [8]: 4.4 µM
TGI [9]: 9.27 µM
TGI [10]: 9.41 µM
TGI [11]: 8.42 µM
TGI [12]: 21.2 µM
TGI [13]: 6.05 µM
TGI [14]: 4.8 µM
TGI [15]: 10.8 µM
TGI [16]: 7.9 µM
TGI [17]: 3.09 µM
TGI [18]: 15.9 µM
TGI [19]: 5.46 µM
